Laboratory results taken from patent publication US20150164871A1, “Pharmaceutical Compositions for Combination Therapy” (Acesion Pharma, priority 2012, published 2015).
“Also recorded” adds a separate entry of the source.

Key:
[1] = system: Isolated, perfused female guinea pig hearts; assay: Effect on AF duration (ACh plus burst pacing) in Langendorff heart; details: for reduction of AF duration as compared to time matched controls (in words): administered alone, ICA 100 nmol/L, flecainide 1 μmol/L, ranolazine 3 μmol/L; for Log AF duration: log(10)-transformed, means±SEM, 1 μmol/L ACh, burst pacing 50 Hz, ICA 0.1 μM, flecainide 1 μM, ranolazine 3 μM
Description: (§1) The isolated heart was prepared as follows. Guinea pigs weighing between 350 and 600 g were anesthetized with i.p. injection of 200 mg/kg pentobarbital. In addition, 1000 IU/kg heparin were injected i.p. Respiration was maintained by artificial ventilation(atm air) through a cannula in the trachea (volume, 12 ml/kg; rate, 60 strokes/min). Upon thoracotomy, a perfusion cannula was inserted and fixed in the aorta for retro-grade perfusion. Hearts were mounted in a vertical Langendorff set-up (Hugo Sachs-Harvard Apparatus GmbH, March-Hugstetten, Germany) and perfused with Krebs-Henseleit solution: 120.4 mM NaCl, 4.0 mM KCl, 2.5 mM CaCl2, 0.6 mM MgSO4, 15.3 mM NaHCO3, 0.6 mM NaH2PO4, and 11.5 mM glucose, pH 7.4, at constant oxygenation with O2/CO2 in a 95/5% mixture at 37° C. Four monophasic action potential (MAP) electrodes were placed on the left atrium, the right atrium, the left ventricle, and right ventricle, respectively. A pacing electrode was placed on the right atrium. The electro-cardiogram (ECG) was obtained with three ECG electrodes placed in close proximity to the heart. All data were acquired using the 16-channel PowerLab system (ADInstruments, Oxfordshire, UK). Pacing stimuli were twice the diastolic threshold and with a duration of 2 milliseconds (ms) unless otherwise stated.
(§2) The aERP was measured (10 basic stimuli [called S1] followed by premature S2 stimuli applied with 2-ms decrements) immediately before and at the end of the 30-minute period at pacing rates of 5 Hz and 10 Hz. After the 30 minutes of perfusion with either 100 nmol/L N-(pyridin-2-yl)-4-(pyridin-2-yl)thiazol-2-amine (ICA), 1 μmol/L flecainide, or 3 μmol/L ranolazine, or vehicle, 1 μmol/L ACh was added to the perfusate and induction of AF was attempted 40 times with burst-pacing (50 Hz) for 2 seconds or until sustained (duration>3 min) AF was obtained (test compound dissolved in DMSO in a stock concentration of 10 mMol/L). ICA in a concentration of 100 nmol/L was then tested in combination with either 1 μmol/L flecainide or 3 μmol/L ranolazine using the same protocol as described above in this section.

[2] = system: Isolated, perfused female guinea pig hearts; assay: Dose finding: cardioversion of acetylcholine/burst-pacing induced AF in Langendorff heart; details: for cardioversion obtained (animals converted out of animals): within 30 min, AF induced by 1 μmol/L ACh and burst pacing
Description: as §1
Isolated, perfused female guinea pig hearts from Dunkin Hartley strain (HsdPoc:DH) continuously paced on the right atrium (300 bpm) were allowed to stabilize, and the atrial effective refractory period (aERP) was measured. AF was induced by 1 μmol/L acetylcholine (ACh) combined with burst pacing (50 Hz, 10V). When sustained (>3minutes) AF was obtained, the test compound from a stock concentration of 10 mMol/L in DMSO was added to the perfusate in a concentration of 100 nmol/L for 30 min. If no cardioversion was obtained within 30 minutes, the concentration of the compound in the perfusate was increased to 300 nmol/L. If no cardioversion was obtained within an additional time period of 30 minutes, the concentration of the compound in the perfusate was increased to 1.0 μmol/L. If no cardioversion was obtained within a further time period of 30 minutes, the concentration of the compound in the perfusate was increased to 3.0 μmol/L. If no cardioversion was obtained within an additional time period of 30 minutes, the concentration of the compound in the perfusate was increased to 10.0 μmol/L. If no cardioversion was obtained within an additional time period of 30 minutes, the concentration of the compound in the perfusate was increased to 30.0 μmol/L. Cardioversion was considered obtained if sinus rhythm was obtained within 30 minutes of one of the above mentioned drug applications, and if sustained AF could not be reinduced with burst pacing stimulation immediately after this.

[3] = system: Isolated, perfused female guinea pig hearts; assay: Effect on atrial effective refractory period (aERP) in Langendorff heart; details: for prolongation of aERP from baseline values as compared to time matched controls (in words): administered alone, ICA 100 nmol/L, flecainide 1 μmol/L, ranolazine 3 μmol/L; for percentual prolongation of aERP after 30 minutes of perfusion as compared to the baseline: ICA 0.1 μM, flecainide 1 μM, ranolazine 3 μM, ±SEM
Description: as §1, §2

[4] = concentration 3.0 μM in perfusate

O=C(NCC1CCCCN1)c1cc(OCC(F)(F)F)ccc1OCC(F)(F)F (stereo not drawn) [Flecainide, N-(piperidin-2-ylmethyl)-2,5-bis(2,2,2-trifluoroethoxy)benzamide]
reduction of AF duration as compared to time matched controls (in words) [1]: no significant reduction of AF duration; also recorded: sub-effective | Log AF duration [1]: 1.27 ± 0.14 | cardioversion obtained (animals converted out of animals) [2, 4]: 2/4 | cardioversion obtained (animals converted out of animals) ([2]; concentration 10.0 μM in perfusate): 2/4 | prolongation of aERP from baseline values as compared to time matched controls (in words) [3]: no significant prolongation of aERP; also recorded: sub-effective | percentual prolongation of aERP after 30 minutes of perfusion as compared to the baseline ([3]; pacing frequency 5 Hz): 123.0 ± 2.6% | percentual prolongation of aERP after 30 minutes of perfusion as compared to the baseline ([3]; pacing frequency 10 Hz): 124.6 ± 8.0%

c1ccc(Nc2nc(-c3ccccn3)cs2)nc1 [ICA, N-(pyridin-2-yl)-4-(pyridin-2-yl)thiazol-2-amine]
reduction of AF duration as compared to time matched controls (in words) [1]: no significant reduction of AF duration; also recorded: does not cause any significant effects | Log AF duration [1]: 1.29 ± 0.15 | cardioversion obtained (animals converted out of animals) ([2]; concentration 0.3 μM in perfusate): 4/4 | prolongation of aERP from baseline values as compared to time matched controls (in words) [3]: no significant prolongation of aERP; also recorded: does not cause any significant effects | percentual prolongation of aERP after 30 minutes of perfusion as compared to the baseline ([3]; pacing frequency 5 Hz): 112.5 ± 3.8% | percentual prolongation of aERP after 30 minutes of perfusion as compared to the baseline ([3]; pacing frequency 10 Hz): 119.3 ± 10.6%

COc1ccccc1OCC(O)CN1CCN(CC(=O)Nc2c(C)cccc2C)CC1 (stereo not drawn) [Ranolazine, N-(2,6-dimethylphenyl)-2-[4-[2-hydroxy-3-(2-methoxyphenoxy)-propyl]piperazin-1-yl]acetamide]
reduction of AF duration as compared to time matched controls (in words) [1]: no significant reduction of AF duration; also recorded: sub-effective | Log AF duration [1]: 1.11 ± 0.23 | cardioversion obtained (animals converted out of animals) ([2]; concentration 1.0 μM in perfusate): 1/5 | cardioversion obtained (animals converted out of animals) [2, 4]: 2/5 | No cardioversion (animals out of animals) ([2]; stepwise 0.1 to 30.0 μM, 30 min each): 2/5 | prolongation of aERP from baseline values as compared to time matched controls (in words) [3]: no significant prolongation of aERP; also recorded: sub-effective | percentual prolongation of aERP after 30 minutes of perfusion as compared to the baseline ([3]; pacing frequency 5 Hz): 114.81 ± 12.7% | percentual prolongation of aERP after 30 minutes of perfusion as compared to the baseline ([3]; pacing frequency 10 Hz): 114.4 ± 9.9%
